pKd: −log10 of the molar value.

This note sets out measurements from ChEMBL document CHEMBL5096239, “Two Binding Sites of SARS-CoV-2 Macrodomain 3 Probed by Oxaprozin and Meclomen” (J Med Chem, 2022).

A short description of assay [1]: Binding affinity to 15N-labelled His6-tagged SARS-CoV-2 Mac3 (551 to 675 residues) V635I mutant expressed in Escherichia coli Rosetta by NMR HSQC spectral analysis. Set-up: species or system Severe acute respiratory syndrome coronavirus 2.
Assay [2] can be described thus: Binding affinity to 15N-labelled MTSL-tagged SARS-CoV-2 Mac3 (551 to 675 residues) T583C mutant expressed in Escherichia coli Rosetta by transferred PRE analysis. Set-up: species or system Severe acute respiratory syndrome coronavirus 2.

Broadly, the pKd is the Kd on a negative log10 scale, so that one unit is a factor of ten. A high value points to a low Kd. As for `Cc1ccc(Cl)c(Nc2ccccc2C(=O)O)c1Cl` [MECLOFENAMIC ACID], the negative-log Kd (pKd) is 3.52 in assay [1] and 3.15 in assay [2].
